Measured values taken from a compilation of properties of binary mixtures (doi:10.1016/j.jct.2019.105906).

Assay: xn = mol fraction of the nth substance listed
Conditions: 100 kPa

CCOC(C)=O + CCCC[n+]1ccn(C)c1.F[P-](F)(F)(F)(F)F
x2 = 0
Conditions | speed of sound [m/s]
303.15 K | 1120.8
308.15 K | 1098.7
313.15 K | 1076.4
318.15 K | 1054.1
323.15 K | 1032

CCCC[n+]1ccn(C)c1.F[P-](F)(F)(F)(F)F + CCOC(C)=O
speed of sound [m/s]
Conditions | x1 = 0.1012 | x1 = 0.1992 | x1 = 0.312 | x1 = 0.3985 | x1 = 0.5056 | x1 = 0.5996 | x1 = 0.7054 | x1 = 0.7963 | x1 = 0.9185 | x1 = 1
298.15 K | 1182.1 | 1223.3 | 1269.2 | 1302 | 1337.9 | – | 1391.7 | 1410.1 | 1430.5 | 1443.8
303.15 K | 1161.8 | 1205 | 1252.8 | – | – | – | 1378.8 | 1397.4 | – | 1431.7
308.15 K | 1141.8 | 1186.7 | – | – | – | 1339.5 | 1366 | – | 1405.6 | 1419.8
313.15 K | 1121.4 | – | 1220.1 | 1256 | 1297.5 | 1325.9 | 1353.2 | 1371.9 | – | –
318.15 K | 1101.1 | – | 1203.7 | 1240.6 | – | 1312.6 | 1340.4 | – | – | –
323.15 K | 1081 | 1132.1 | 1187.3 | 1225.2 | – | 1299.1 | 1327.5 | 1346.6 | 1368.4 | 1385.6
